Data as given in patent US20260232720A1, “NEW MEDICAL USE OF SEVUPARIN IN THE TREATMENT OF ENDOTOXEMIA” (Modus Therapeutics AB, priority 2023, published 2026).
Where two headings read alike, the source gives them in different places.

Experiments:
healthy volunteers [1] = details: for Basophil count / Eosinophil count / Lymphocyte count / Monocyte count / Neutrophil count: LS Means, IV LPS 1 ng/kg
From the text: (§1) A randomized, placebo-controlled study to evaluate the effects of intravenous sevuparin on LPS reactions (first part), and the interaction between subcutaneous enoxaparin and sevuparin on coagulation responses in healthy volunteers (second part), has been performed.
(§2) Objectives for first part of the clinical study: To evaluate the effect of intarvenous (IV) sevuparin on safety and tolerability and inflammatory responses following an intravenous (IV) LPS challenge.
(§3) • Leucocyte differential • Cytokines (including IL-6, IL-8, IL-10 and TNF-α) • Flow cytometry (Neutrophils, monocyte subsets, T cells, B cells, NK cells, dendritic cells, including neutrophil extracellular traps) • Explorative biomarkers: acute phase reactants and components measurable in blood, serum and plasma of relevance for septic inflammation may be measured and reported separately.
(§4) In the first part of the study, sevuparin (or matching placebo) is administered by IV infusion (bolus loading dose followed by continuous infusion over 6 hours); In the second part of the study, sevuparin and enoxaparin are given by subcutaneous injection.
(§5) The sevuparin dose was as follows in the first part of the study: • Group 1 (sevuparin low dose): loading bolus dose of 0.3 mg/kg bodyweight, followed by IV infusion at 0.08 mg/kg/h; • Group 2 (sevuparin intermediate dose): loading dose of 1 mg/kg bodyweight, followed by IV infusion at 0.25 mg/kg/h; • Group 3 (sevuparin high dose): loading dose of 3 mg/kg bodyweight, followed by IV infusion at 0.75 mg/kg/h.
(§6) In the first part of the study, 1 ng/kg bodyweight of LPS was administered intravenously.
(§7) In the first part of the study, a total of 48 male and female healthy volunteers were enrolled and randomized over 4 treatment groups (sevuparin low, intermediate or high dose or matching placebo). Each treatment group consisted of 12 healthy volunteers. All subjects underwent an intravenous LPS challenge.
(§8) In the first part of the current study, subjects are administered with intravenous LPS 30 min after the start of the infusion of sevuparin on study Day 1. LPS, purified lipopolysaccharide prepared from Escherichia Coli: 113: H10: K negative (U.S. Standard Reference Endotoxin) is used. This LPS batch was manufactured in the US by List Biological Laboratories. All participants received 1 ng/kg E. coli purified LPS, administered as a 2-minute infusion. To ensure that participants stay adequately hydrated, additionally saline (NaCl 0.9%) or glucose/saline was infused (2.5% glucose/0.45% sodium chloride) starting approximately 2 hours before LPS administration at a rate of 750 ml/h, until 6 h afterwards at a rate of 150 ml/h (Hijma et al., 2020). During infusion of study drug or placebo, infused over 6 hours at an infusion rate of 80 mL/h, the infusion rate of glucose/saline was lowered to 80 mL/h.
Blood and other biological samples are collected for the following clinical laboratory tests: Haematology; Chemistry and electrolytes; Glucose; […] (after 4-hours fasting); […] (conjugated bilirubin is reported only when total bilirubin is outside the reference range); Virology; Urinalysis; Pregnancy (for women, serum pregnancy test is performed at screening and urine pregnancy test at other visits when scheduled, and if pregnancy is suspected during the study); Alcohol screening; and Urine drug screening.

healthy volunteers [2] = details: for Body temperature / Diastolic blood pressure / Heart rate / NRS feeling sick / Systolic blood pressure: LS Means, IV LPS 1 ng/kg
From the text: as §1, §2, §4, §5, §6, §7, §8
Evaluations of systolic and diastolic blood pressure, pulse rate, respiratory rate, and temperature is performed throughout the study. Pulse and blood pressure is taken after 5 minutes in the supine position. Automated oscillometric blood pressures and pulse rate is measured using a Dash 3000,
Subjective assessment of feeling sick is recorded by the subjects during the first part of the study (IV LPS infusion) on a numeric rating scale (NRS) electronically.
(§9) Throughout the Figures and tables related to the clinical study test results, the following abbreviations and its definitions are used: • IV LPS Placebo means subjects who have been challenged with intravenous LPS and thereafter received placebo intravenously as described above. • Sevuparin 0.3/0.08 means (sevuparin low dose): loading bolus dose of 0.3 mg/kg bodyweight, followed by 0.08 mg/kg/h intravenously; • Sevuparin 1/0.25 means (sevuparin intermediate dose): loading dose of 1 mg/kg bodyweight, followed by 0.25 mg/kg/h intravenously; • Sevuparin 3/0.75 means (sevuparin high dose): loading dose of 3 mg/kg bodyweight, followed by 0.75 mg/kg/h intravenously.

[3] = system: inflammatory biomarkers cytokines and C-Reactive Protein (CRP); details: for C-Reactive Protein / IL-6 in plasma / IL-8 in plasma / IL-10 in plasma / TNF-α in plasma: LS Means, IV LPS 1 ng/kg
From the text: as §1, §2, §3, §4, §5, §6, §7, §8
Blood is collected at time points as shown in Table 1 below for the assessment of cytokines. Venous blood (4 mL) is collected in K2EDTA tubes. Plasma is collected after centrifugation at 2000×g for 20 minutes at room temperature and stored at −80° C., in 3×0.5 ml aliquots until analysis. Samples are analysed by Ardena Laboratories Assen.
as §9

[4] = sevuparin 0.3/0.08 (loading bolus 0.3 mg/kg, then 0.08 mg/kg/h IV)
[5] = sevuparin 1.0/0.25 (loading 1 mg/kg, then 0.25 mg/kg/h IV)
[6] = sevuparin 3.0/0.75 (loading 3 mg/kg, then 0.75 mg/kg/h IV)
[7] = IV LPS, in words, all doses vs placebo

## sevuparin
Healthy volunteers [1]; IV LPS, in words
  change in basophils compared to placebo control: dose dependent pronounced increase
  change in neutrophils compared to placebo control: dose dependent pronounced increase
Healthy volunteers [1]; IV LPS, in words, FIG. 1
  change in lymphocytes compared to placebo control: dose dependent pronounced increase
Healthy volunteers [1]; [4]
  Basophil count: 0.029 E9/L
  Eosinophil count: 0.114 E9/L
  Lymphocyte count: 1.046 E9/L
  Monocyte count: 0.335 E9/L
  Neutrophil count: 6.650 E9/L
Healthy volunteers [1]; [5]
  Basophil count: 0.032 E9/L
  Eosinophil count: 0.105 E9/L
  Lymphocyte count: 1.136 E9/L
  Monocyte count: 0.339 E9/L
  Neutrophil count: 5.788 E9/L
Healthy volunteers [1]; [6]
  Basophil count: 0.039 E9/L
  Eosinophil count: 0.117 E9/L
  Lymphocyte count: 1.369 E9/L
  Monocyte count: 0.376 E9/L
  Neutrophil count: 7.073 E9/L
Healthy volunteers [2]; FIG. 2, IV LPS, highest intravenously administered dose of sevuparin
  respiratory rate compared to placebo: improvement of the respiratory rate
Healthy volunteers [2]; [7]
  therapeutic impact on body temperature: did not have any therapeutic impact
  therapeutic impact on diastolic blood pressure: did not have any therapeutic impact
  therapeutic impact on feeling sick: did not have any therapeutic impact
  therapeutic impact on heart rate: did not have any therapeutic impact
  therapeutic impact on systolic blood pressure: did not have any therapeutic impact
Healthy volunteers [2]; [4]
  Body temperature: 37.13
  Diastolic blood pressure: 63.5 mm Hg
  Heart rate: 69.7 bpm
  NRS feeling sick: 1.9
  Systolic blood pressure: 115.5 mm Hg
Healthy volunteers [2]; [5]
  Body temperature: 36.93
  Diastolic blood pressure: 63.9 mm Hg
  Heart rate: 71.1 bpm
  NRS feeling sick: 1.9
  Systolic blood pressure: 117.3 mm Hg
Healthy volunteers [2]; [6]
  Body temperature: 36.97
  Diastolic blood pressure: 62.7 mm Hg
  Heart rate: 70.5 bpm
  NRS feeling sick: 2.0
  Systolic blood pressure: 114.0 mm Hg
[3]; IV LPS, in words, vs placebo
  therapeutic effect on C-Reactive Protein (CRP): no therapeutic effect
  therapeutic effect on the inflammatory biomarkers cytokines: no therapeutic effect
[3]; [4]
  C-Reactive Protein: 10.893 mg/mL
  IL-6 in plasma: 19.587 pg/mL
  IL-8 in plasma: 19.393 pg/mL
  IL-10 in plasma: 8.125 pg/mL
  TNF-α in plasma: 5.574 pg/mL
[3]; [5]
  C-Reactive Protein: 11.080 mg/mL
  IL-6 in plasma: 16.012 pg/mL
  IL-8 in plasma: 19.843 pg/mL
  IL-10 in plasma: 11.825 pg/mL
  TNF-α in plasma: 5.415 pg/mL
[3]; [6]
  C-Reactive Protein: 11.853 mg/mL
  IL-6 in plasma: 13.712 pg/mL
  IL-8 in plasma: 17.820 pg/mL
  IL-10 in plasma: 7.527 pg/mL
  TNF-α in plasma: 5.039 pg/mL
